The results in this text go back to patent US8969360B2, “Compounds useful as inhibitors of ATR kinase” (Vertex Pharmaceuticals Incorporated, priority 2013, dated 2015).

Test [1] concerns HCT116 colorectal cancer cells. Kind of test: Cisplatin Sensitization Assay (96 h cell viability MTS). It is filed as cell-based. The following applies: concentration of compound required to reduce the IC50 of Cisplatin alone by at least 3-fold; HCT116, 96 h MTS. The method in brief: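 HCT116 cells received compound and cisplatin together as a full matrix of 2-fold dilutions, each from a 10 μM top final concentration. After 96 h at 37 °C and 5% CO2, viability was read by MTS (1 h, A490). The value is the compound concentration that lowers the cisplatin IC50 at least 3-fold.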

Test [2] deals with T1, ATR kinase (Homo sapiens, UniProt Q13535).
T1 construct: Assays were carried out at 25° C. in the presence of 5 nM full-length ATR
T1 sequence (Q13535 whole entry): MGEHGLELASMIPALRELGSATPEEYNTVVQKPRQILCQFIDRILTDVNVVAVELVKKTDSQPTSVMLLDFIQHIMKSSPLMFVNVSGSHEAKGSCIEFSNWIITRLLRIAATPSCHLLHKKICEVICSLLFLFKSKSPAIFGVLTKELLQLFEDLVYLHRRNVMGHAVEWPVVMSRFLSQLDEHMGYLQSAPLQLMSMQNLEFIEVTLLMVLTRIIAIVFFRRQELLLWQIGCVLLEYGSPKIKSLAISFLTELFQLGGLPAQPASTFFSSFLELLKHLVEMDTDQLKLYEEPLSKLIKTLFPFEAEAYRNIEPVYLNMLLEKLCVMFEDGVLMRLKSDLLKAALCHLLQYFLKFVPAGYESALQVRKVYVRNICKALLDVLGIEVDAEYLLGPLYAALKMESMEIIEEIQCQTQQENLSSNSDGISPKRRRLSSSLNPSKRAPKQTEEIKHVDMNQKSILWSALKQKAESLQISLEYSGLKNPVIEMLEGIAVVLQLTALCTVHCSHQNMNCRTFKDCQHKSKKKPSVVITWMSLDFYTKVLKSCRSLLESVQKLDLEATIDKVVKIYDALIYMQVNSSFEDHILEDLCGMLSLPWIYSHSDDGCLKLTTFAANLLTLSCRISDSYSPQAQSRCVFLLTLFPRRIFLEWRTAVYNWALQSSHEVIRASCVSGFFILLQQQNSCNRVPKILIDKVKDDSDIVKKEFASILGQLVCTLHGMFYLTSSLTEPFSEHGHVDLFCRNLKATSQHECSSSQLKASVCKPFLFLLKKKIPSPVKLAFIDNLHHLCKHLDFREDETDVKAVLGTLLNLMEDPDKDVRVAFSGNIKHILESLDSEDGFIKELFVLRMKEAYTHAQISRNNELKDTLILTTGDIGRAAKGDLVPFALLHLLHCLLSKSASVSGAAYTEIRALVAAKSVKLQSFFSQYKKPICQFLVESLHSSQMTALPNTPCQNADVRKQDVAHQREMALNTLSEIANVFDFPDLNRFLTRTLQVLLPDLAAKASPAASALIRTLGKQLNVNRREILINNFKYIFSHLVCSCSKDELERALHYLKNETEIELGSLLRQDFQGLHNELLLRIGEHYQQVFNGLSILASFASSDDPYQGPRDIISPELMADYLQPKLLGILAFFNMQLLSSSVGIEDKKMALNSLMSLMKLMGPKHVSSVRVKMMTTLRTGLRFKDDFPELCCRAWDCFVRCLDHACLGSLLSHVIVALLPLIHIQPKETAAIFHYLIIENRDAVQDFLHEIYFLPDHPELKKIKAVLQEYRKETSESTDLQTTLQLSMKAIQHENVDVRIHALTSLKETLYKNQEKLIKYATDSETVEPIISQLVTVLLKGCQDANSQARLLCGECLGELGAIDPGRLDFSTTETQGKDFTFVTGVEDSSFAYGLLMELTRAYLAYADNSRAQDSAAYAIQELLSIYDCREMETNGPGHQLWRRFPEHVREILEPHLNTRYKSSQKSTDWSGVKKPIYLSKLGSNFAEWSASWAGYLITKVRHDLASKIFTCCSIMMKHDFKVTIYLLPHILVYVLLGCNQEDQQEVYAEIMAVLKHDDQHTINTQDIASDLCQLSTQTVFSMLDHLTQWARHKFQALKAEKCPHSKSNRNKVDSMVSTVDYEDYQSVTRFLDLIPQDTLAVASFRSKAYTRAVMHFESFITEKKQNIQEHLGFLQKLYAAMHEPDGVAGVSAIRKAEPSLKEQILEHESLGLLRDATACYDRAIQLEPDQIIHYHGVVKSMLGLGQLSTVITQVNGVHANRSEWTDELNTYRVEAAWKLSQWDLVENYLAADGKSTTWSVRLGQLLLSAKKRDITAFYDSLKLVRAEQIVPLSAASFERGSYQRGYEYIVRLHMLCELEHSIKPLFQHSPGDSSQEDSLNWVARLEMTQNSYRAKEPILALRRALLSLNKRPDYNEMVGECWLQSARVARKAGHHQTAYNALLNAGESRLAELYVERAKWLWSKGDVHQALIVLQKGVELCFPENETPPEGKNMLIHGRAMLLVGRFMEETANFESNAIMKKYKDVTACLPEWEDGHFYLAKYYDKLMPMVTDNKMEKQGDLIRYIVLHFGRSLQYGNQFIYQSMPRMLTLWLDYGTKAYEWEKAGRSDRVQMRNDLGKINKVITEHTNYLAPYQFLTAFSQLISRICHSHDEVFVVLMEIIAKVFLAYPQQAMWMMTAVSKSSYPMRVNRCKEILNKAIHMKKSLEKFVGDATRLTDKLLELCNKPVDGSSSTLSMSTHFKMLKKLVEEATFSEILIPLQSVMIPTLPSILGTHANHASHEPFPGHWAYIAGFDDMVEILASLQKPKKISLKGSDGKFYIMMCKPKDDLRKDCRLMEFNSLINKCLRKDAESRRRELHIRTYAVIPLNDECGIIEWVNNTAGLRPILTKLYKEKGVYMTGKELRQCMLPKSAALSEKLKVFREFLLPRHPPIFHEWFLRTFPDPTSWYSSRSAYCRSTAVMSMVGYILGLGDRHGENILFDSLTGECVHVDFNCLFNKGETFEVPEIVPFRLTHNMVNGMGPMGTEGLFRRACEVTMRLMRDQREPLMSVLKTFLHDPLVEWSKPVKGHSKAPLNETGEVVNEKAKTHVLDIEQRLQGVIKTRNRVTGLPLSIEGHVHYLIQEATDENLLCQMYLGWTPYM
Kind of test: ATR Inhibition Assay (radioactive-phosphate incorporation). It is filed as biochemical. The following applies: Ki(app); 5 nM full-length ATR, 10 μM ATP, 800 μM target peptide, 25° C. In short, it runs like this:
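Full-length ATR (5 nM) in 50 mM Tris/HCl pH 7.5, 10 mM MgCl2, 1 mM DTT, with 800 μM peptide substrate and 10 μM [γ-33P]ATP at 25 °C. Compounds (from 15 μM final, 3-fold dilutions, 7% DMSO) were preincubated 10 min; the reaction was stopped at 24 h. 33P incorporation was captured on phosphocellulose; Ki(app) was from non-linear regression of initial rates.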

SMILES strings stand for the structures.

As to `COc1ccncc1NC(=O)c1c(N)nn2ccc(OC3CCN(C)CC3)nc12` [I-O-61, 2-amino-N-(4-methoxypyridin-3-yl)-5-((1-methylpiperidin-4-yl)oxy)pyrazolo[1,5-a]pyrimidine-3-carboxamide], the “Synergy with Cisplatin” value in test [1] was “++ (Compounds with a Cisplatin sensitization value>0.02 μM but <0.2 μM are marked with “++.”)”. For the same compound, the Ki in test [2] is 10 to 1000 nM.

For the compound `COc1ccncc1NC(=O)c1c(N)nn2ccc(NCC3COC3)nc12` [I-O-68, 2-amino-N-(4-methoxypyridin-3-yl)-5-((oxetan-3-ylmethyl)amino)pyrazolo[1,5-a]pyrimidine-3-carboxamide], the “Synergy with Cisplatin” value in test [1] is listed as “++ (Compounds with a Cisplatin sensitization value>0.02 μM but <0.2 μM are marked with “++.”)”. The Ki in test [2] is less than 10 nM.

Turning to `CN(C)CCOc1cc(Cl)ncc1NC(=O)c1c(N)nn2ccc(C(F)(F)F)nc12` [I-O-50, 2-amino-N-(6-chloro-4-(2-(dimethylamino)ethoxy)pyridin-3-yl)-5-(trifluoromethyl)pyrazolo[1,5-a]pyrimidine-3-carboxamide], the “Synergy with Cisplatin” value in test [1] is given as “++ (Compounds with a Cisplatin sensitization value>0.02 μM but <0.2 μM are marked with “++.”)”. Moreover, the Ki in test [2] was 10 to 1000 nM.

Turning to `Cc1ccncc1NC(=O)c1c(N)nn2ccc(C(F)(F)F)nc12` [I-C-1, 2-amino-N-(4-methylpyridin-3-yl)-5-(trifluoromethyl)pyrazolo[1,5-a]pyrimidine-3-carboxamide], the “Synergy with Cisplatin” value in test [1] is listed as “++ (Compounds with a Cisplatin sensitization value>0.02 μM but <0.2 μM are marked with “++.”)”. Also, the Ki in test [2] is 10 to 1000 nM.

Turning to `Nc1nn2ccc(C(F)(F)F)nc2c1C(=O)Nc1cnccc1Oc1ccncc1` [I-O-16, 2-amino-N-(4-(pyridin-4-yloxy)pyridin-3-yl)-5-(trifluoromethyl)pyrazolo[1,5-a]pyrimidine-3-carboxamide], in test [1], the “Synergy with Cisplatin” value is recorded as “+ (Compounds with a Cisplatin sensitization value >0.2 μM but <5 μM are marked with “+.”)”. The Ki in test [2] lay in the range of 10 to 1000 nM.

For `CN1CCCC(Oc2ccncc2NC(=O)c2c(N)nn3ccc(C(F)(F)F)nc23)C1` (centres unmarked) [I-O-26, 2-amino-N-(4-((1-methylpiperidin-3-yl)oxy)pyridin-3-yl)-5-(trifluoromethyl)pyrazolo[1,5-a]pyrimidine-3-carboxamide], the “Synergy with Cisplatin” value in test [1] is reported as “+++ (Compounds with a Cisplatin sensitization value of <0.02 μM are marked with “+++.”)”. Further, in test [2], the Ki is 10 to 1000 nM.

With `COCCOc1ccncc1NC(=O)c1c(N)nn2ccc(C(F)(F)F)nc12` [I-O-8, 2-amino-N-(4-(2-methoxyethoxy)pyridin-3-yl)-5-(trifluoromethyl)pyrazolo[1,5-a]pyrimidine-3-carboxamide], the “Synergy with Cisplatin” value in test [1] was “+++ (Compounds with a Cisplatin sensitization value of <0.02 μM are marked with “+++.”)”. In test [2], the Ki was in the range of 10 to 1000 nM.
